Columns and labels:
Type in all cases: physicochemical
[1] = Dissolution rate test in caprylic/capric triglyceride; details: 4.0 g powder in 96.0 g caprylic/capric triglyceride, stirring, 25° C., visual inspection
Description: (§1) Description of dissolution rate test. 4.0 g of powder was dispersed under stirring in 96.0 g of caprylic/capric triglyceride solvent at 25° C. The total dissolution time was measured, with visual inspection, noting the time of complete disappearance of any heterogeneity in the form of particles or opalescence in the solution.

[2] = Dissolution rate test in ethylhexyl stearate; details: 4.0 g powder in 96.0 g ethylhexyl stearate, stirring, 25° C., visual inspection
Description: as §1, with “ethylhexyl stearate” for “caprylic/capric triglyceride”

[3] = Dissolution rate test in octyl dodecanol; details: 4.0 g powder in 96.0 g octyl dodecanol, stirring, 25° C., visual inspection
Description: as §1, with “octyl dodecanol” for “caprylic/capric triglyceride”

[4] = Stability of the amorphous solid form by DSC; details: for solid form stability by DSC: DSC technique
Description: Samples 1C and 1A were characterised by the differential scanning calorimetry (DSC) technique. […] The amorphous solid sample 1A according to the present invention presented a first exothermic transition (corresponding to a formation of crystalline form) at temperatures of between 50 and 90° C., and subsequently at 128° C., the endothermic transition corresponding to melting of the crystalline form that formed at lower temperatures.
Sample 1A was stored for 12 months at room temperature and subjected to a second DSC measurement. Its appearance was still that of a white powder.

Compound	dissolution time [1]	solid form stability by DSC [4]	dissolution time [2]	dissolution time [3]	DSC curve after storage (stability of amorphous form) ([4]; stored for 12 months at room temperature, second DSC measurement)
CCCCC(CC)COC(=O)c1ccc(Nc2nc(Nc3ccc(C(=O)OCC(CC)CCCC)cc3)nc(Nc3ccc(C(=O)OCC(CC)CCCC)cc3)n2)cc1 (stereo not drawn) [Sample 1A]	15 min	–	40 min	90 min	identical to the curve obtained a year earlier
CCCCC(CC)COC(=O)c1ccc(Nc2nc(Nc3ccc(C(=O)OCC(CC)CCCC)cc3)nc(Nc3ccc(C(=O)OCC(CC)CCCC)cc3)n2)cc1 (stereo not drawn) [Sample 1C, reference compound]	over 90 minutes	–	over 420 minutes (opaque white dispersion)	over 420 minutes (insoluble-opaque white dispersion)	–
CCCCC(CC)COC(=O)c1ccc(Nc2nc(Nc3ccc(C(=O)OCC(CC)CCCC)cc3)nc(Nc3ccc(C(=O)OCC(CC)CCCC)cc3)n2)cc1 (stereo not drawn) [Sample 2A]	15 min	stable amorphous form	–	–	–

More lines, main results first:

dissolution time [1]	solid form stability by DSC [4]	Compound	dissolution time [2]	dissolution time [3]	DSC curve after storage (stability of amorphous form) ([4]; stored for 12 months at room temperature, second DSC measurement)
over 90 minutes	–	CCCCC(CC)COC(=O)c1ccc(Nc2nc(Nc3ccc(C(=O)OCC(CC)CCCC)cc3)nc(Nc3ccc(C(=O)OCC(CC)CCCC)cc3)n2)cc1 (stereo not drawn) [Sample 2C, reference compound]	–	–	–
15 min	stable amorphous form	CCCCC(CC)COC(=O)c1ccc(Nc2nc(Nc3ccc(C(=O)OCC(CC)CCCC)cc3)nc(Nc3ccc(C(=O)OCC(CC)CCCC)cc3)n2)cc1 (stereo not drawn) [Sample 3A]	–	–	–
